Measurements taken from US20250352520A1, “USE OF DEXPRAMIPEXOLE FOR THE TREATMENT OF EOSINOPHILIC COPD” (Areteia Therapeutics, Inc., priority 2024, published 2025).

Settings: Week 16; <50% AEC reduction at Week 16

## CCCN[C@@H]1CCc2nc(N)sc2C1 [Dexpramipexole, (6R)-2-amino-4,5,6,7-tetrahydro-6-(propylamino)benzothiazole]
  Pre-BD FEF25-75 % change from baseline, Max: −3%
  Pre-BD FEF25-75 % change from baseline, Mean ± SD: −14.5 ± 19.68%
  Pre-BD FEF25-75 % change from baseline, Median: −5.5%
  Pre-BD FEF25-75 % change from baseline, Min: −44%
  Pre-BD FEF25-75 % change from baseline, Q1: −25%
  Pre-BD FEF25-75 % change from baseline, Q3: −4%
  Pre-BD FEF25-75 Observed, Max: 780 mL/s
  Pre-BD FEF25-75 Observed, Mean ± SD: 505.0 ± 266.15 mL/s
  Pre-BD FEF25-75 Observed, Median: 505.0 mL/s
  Pre-BD FEF25-75 Observed, Min: 230 mL/s
  Pre-BD FEF25-75 Observed, Q1: 280 mL/s
  Pre-BD FEF25-75 Observed, Q3: 730 mL/s
  Pre-BD FEF25-75 change from baseline, Max: -10 mL/s
  Pre-BD FEF25-75 change from baseline, Mean ± SD: -170.0 ± 293.94 mL/s
  Pre-BD FEF25-75 change from baseline, Median: -30.0 mL/s
  Pre-BD FEF25-75 change from baseline, Min: -610 mL/s
  Pre-BD FEF25-75 change from baseline, Q1: -330 mL/s
  Pre-BD FEF25-75 change from baseline, Q3: -10 mL/s
  Pre-BD FEV1 % change from baseline, Max: 3%
  Pre-BD FEV1 % change from baseline, Mean ± SD: −11.4 ± 15.14%
  Pre-BD FEV1 % change from baseline, Median: −8.5%
  Pre-BD FEV1 % change from baseline, Min: −32%
  Pre-BD FEV1 % change from baseline, Q1: −22%
  Pre-BD FEV1 % change from baseline, Q3: 0%
  Pre-BD FEV1 Observed, Max: 1660 mL
  Pre-BD FEV1 Observed, Mean ± SD: 1280.0 ± 399.67 mL
  Pre-BD FEV1 Observed, Median: 1370.0 mL
  Pre-BD FEV1 Observed, Min: 720 mL
  Pre-BD FEV1 Observed, Q1: 1020 mL
  Pre-BD FEV1 Observed, Q3: 1540 mL
  Pre-BD FEV1 change from baseline, Max: 50 mL
  Pre-BD FEV1 change from baseline, Mean ± SD: -192.5 ± 318.58 mL
  Pre-BD FEV1 change from baseline, Median: -80.0 mL
  Pre-BD FEV1 change from baseline, Min: -660 mL
  Pre-BD FEV1 change from baseline, Q1: -385 mL
  Pre-BD FEV1 change from baseline, Q3: 0 mL
  Pre-BD FVC % change from baseline, Max: 3%
  Pre-BD FVC % change from baseline, Mean ± SD: −3.2 ± 7.22%
  Pre-BD FVC % change from baseline, Median: −2.0%
  Pre-BD FVC % change from baseline, Min: −12%
  Pre-BD FVC % change from baseline, Q1: −9%
  Pre-BD FVC % change from baseline, Q3: 3%
  Pre-BD FVC Observed, Max: 3380 mL
  Pre-BD FVC Observed, Mean ± SD: 2900.0 ± 503.26 mL
  Pre-BD FVC Observed, Median: 2985.0 mL
  Pre-BD FVC Observed, Min: 2250 mL
  Pre-BD FVC Observed, Q1: 2510 mL
  Pre-BD FVC Observed, Q3: 3290 mL
  Pre-BD FVC change from baseline, Max: 80 mL
  Pre-BD FVC change from baseline, Mean ± SD: -95.0 ± 203.55 mL
  Pre-BD FVC change from baseline, Median: -80.0 mL
  Pre-BD FVC change from baseline, Min: -300 mL
  Pre-BD FVC change from baseline, Q1: -270 mL
  Pre-BD FVC change from baseline, Q3: 80 mL
  Pre-BD Peak Flow % change from baseline, Max: 930%
  Pre-BD Peak Flow % change from baseline, Mean ± SD: 236.0 ± 462.72%
  Pre-BD Peak Flow % change from baseline, Median: 8.1%
  Pre-BD Peak Flow % change from baseline, Min: −2%
  Pre-BD Peak Flow % change from baseline, Q1: 1%
  Pre-BD Peak Flow % change from baseline, Q3: 471%
  Pre-BD Peak Flow Observed, Max: 412 L/min
  Pre-BD Peak Flow Observed, Mean ± SD: 258.0 ± 118.14 L/min
  Pre-BD Peak Flow Observed, Median: 248.0 L/min
  Pre-BD Peak Flow Observed, Min: 124 L/min
  Pre-BD Peak Flow Observed, Q1: 186 L/min
  Pre-BD Peak Flow Observed, Q3: 331 L/min
  Pre-BD Peak Flow change from baseline, Max: 372 L/min
  Pre-BD Peak Flow change from baseline, Mean ± SD: 101.5 ± 180.70 L/min
  Pre-BD Peak Flow change from baseline, Median: 18.5 L/min
  Pre-BD Peak Flow change from baseline, Min: -3 L/min
  Pre-BD Peak Flow change from baseline, Q1: 5 L/min
  Pre-BD Peak Flow change from baseline, Q3: 199 L/min
